Assay results reported in patent USRE40558E1, “Therapeutic uses of di-aryl acid derivatives” (Sanofi-Aventis Deutschland GmbH, priority 1999, dated 2008).

Row | Structure (SMILES) | melting point
1 | Cc1cc(OCc2ccccc2)cc(OCCCC(C)C)c1C(=O)O [Example 15b, 4-Benzyloxy-2-methyl-6-(4-methyl-pentyloxy)-benzoic Acid] | 83 to 85 °C
2 | Cc1cc(OCc2ccccc2)cc(OCCCc2ccccc2)c1C(=O)O [Example 15, 4-Benzyloxy-2-methyl-6-(3-phenyl-propoxy)-benzoic Acid] | 109 to 111 °C
3 | Cc1cc(OCc2ccccc2)cc(OCC2CCCCC2)c1C(=O)O [Example 15a, 4-Benzyloxy-2-cyclohexylmethoxy-6-methyl-benzoic Acid] | 127 to 128 °C
